In patent US20250059188A1, “ARYLSULPHONAMIDE COMPOUNDS” (Anaxis Pharma Pty Ltd, priority 2021, published 2025):
Where two headings read alike, the source gives them in different places.

Experiments:
human MLKL (full length) = human MLKL (full length) (Homo sapiens (Human), UniProt Q8NB16); test: KINOMEscan binding assay, human MLKL (full length); conditions: equilibrium dissociation constant
In short: (§1)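 Tagged kinase + immobilized ligand beads + compound; eluted kinase quantified by qPCR. Kinase source: T7 phage lysate (BL21-derived E. coli, 32 °C) or HEK-293 with DNA tag. 11-pt 3-fold series, 1% DMSO, top 30,000 nM (most). Hill fit, slope −1 → Kd.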

human RIPK1 = human RIPK1 (Homo sapiens (Human), UniProt Q13546); test: KINOMEscan binding assay, human RIPK1; conditions: equilibrium dissociation constant
Chain of human RIPK1 (Q13546 whole entry): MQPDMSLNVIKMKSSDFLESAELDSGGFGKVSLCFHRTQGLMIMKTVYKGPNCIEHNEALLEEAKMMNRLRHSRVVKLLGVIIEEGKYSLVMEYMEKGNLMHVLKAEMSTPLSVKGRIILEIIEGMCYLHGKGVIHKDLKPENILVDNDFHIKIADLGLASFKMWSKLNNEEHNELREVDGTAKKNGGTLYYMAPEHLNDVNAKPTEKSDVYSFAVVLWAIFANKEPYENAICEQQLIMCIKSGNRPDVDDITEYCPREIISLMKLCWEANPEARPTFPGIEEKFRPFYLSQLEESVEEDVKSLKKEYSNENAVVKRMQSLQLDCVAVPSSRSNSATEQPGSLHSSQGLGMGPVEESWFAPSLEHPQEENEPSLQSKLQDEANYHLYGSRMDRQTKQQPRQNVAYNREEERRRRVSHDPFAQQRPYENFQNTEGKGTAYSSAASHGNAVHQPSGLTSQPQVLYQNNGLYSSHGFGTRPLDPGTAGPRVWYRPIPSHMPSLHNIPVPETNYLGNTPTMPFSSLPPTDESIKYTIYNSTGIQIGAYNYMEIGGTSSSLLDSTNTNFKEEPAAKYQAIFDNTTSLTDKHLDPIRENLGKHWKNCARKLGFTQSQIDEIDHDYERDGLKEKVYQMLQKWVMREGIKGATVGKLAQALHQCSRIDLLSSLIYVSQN
In short: as §1

human RIPK3 = human RIPK3 (Homo sapiens (Human), UniProt Q9Y572); test: KINOMEscan binding assay, human RIPK3; conditions: equilibrium dissociation constant
Chain of human RIPK3 (Q9Y572 whole entry): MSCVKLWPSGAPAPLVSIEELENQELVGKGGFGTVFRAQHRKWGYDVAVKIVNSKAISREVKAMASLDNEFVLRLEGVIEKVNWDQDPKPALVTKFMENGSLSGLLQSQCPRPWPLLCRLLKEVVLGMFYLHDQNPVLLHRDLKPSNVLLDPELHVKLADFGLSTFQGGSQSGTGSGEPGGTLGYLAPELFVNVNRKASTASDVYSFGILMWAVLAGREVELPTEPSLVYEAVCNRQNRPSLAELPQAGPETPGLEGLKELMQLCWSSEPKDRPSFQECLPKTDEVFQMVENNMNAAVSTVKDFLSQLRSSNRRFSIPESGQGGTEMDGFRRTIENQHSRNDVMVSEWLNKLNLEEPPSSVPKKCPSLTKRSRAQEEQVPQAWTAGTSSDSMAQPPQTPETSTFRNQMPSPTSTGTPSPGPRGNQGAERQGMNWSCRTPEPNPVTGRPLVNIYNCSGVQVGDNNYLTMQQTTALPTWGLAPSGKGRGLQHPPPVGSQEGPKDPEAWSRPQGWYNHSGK
In short: as §1

[1] = test system: U937 human histiocytic leukemia cell line; test: Inhibition of TSQ induced necroptosis in U937 cells (CellTitre-Glo); conditions: 48 hours, read-out: Inhibition of TSQ-induced necroptosis (IC50 cell-based assay)
In short: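 Necroptosis was induced with TNF-Fc (100 ng/ml), Smac mimetic (500 nM) and Q-VD-OPh (10 μM) in 20000 U937 cells/well exposed to a 10-point, 3-fold compound series (top 36 μM, 0.3% DMSO). ATP luminescence read after 48 h; 4-parameter fit gave IC50. Parallel TSQ-free wells assessed compound toxicity.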

U937 cells = test: Counter screen: U937 cell viability without TSQ cocktail (off-target effect); set-up: species or system human; conditions: read-out: Off-target effect (IC50 cell-based assay)
In short: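 Off-target viability counter screen: compounds titrated 36 μM down 1:3 over 10 points (0.3% DMSO) on 20,000 U937 cells/well, no TNF/Smac mimetic/Q-VD-OPh added, 48 h incubation. ATP-based CellTiter-Glo luminescence, four-parameter logistic IC50.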

[2] = test system: Immortalised Mouse Dermal Fibroblasts (MDFs); test: Inhibition of TSI induced necroptosis in mouse dermal fibroblasts (CellTitre-Glo); conditions: MDF cells, TSI cocktail (TNF, Smac mimetic, IDN-6556), read-out: Inhibition of TSI-induced necroptosis (IC50 cell-based assay) in MDF
Protocol: Cellular Assay: Screening Compounds for Inhibition of TSI Induced Necroptosis in, 384 well plate format. • Cell Line ID: Immortalised Mouse Dermal Fibroblasts (MDFs). • Cell Concentration (cells/well): Final cell density is 2200 cells per well. • Cell growth medium: DMEM medium+7.4% Fetal Bovine Serum (FBS). Cells are cultured in Corning 150 cm^2 tissue culture flasks with vented caps at 37° C./10% CO2. • Incubation: Plates were incubated for 30 minutes following addition of compounds and then 3 hours incubation with death stimuli (TSI cocktail) at 37° C./10% CO2 in a humidified incubator. • Compound concentration: 36 μM starting concentration, 1:3 dilution, 10 point • DMSO final concentration (% v/v): 0.3%. Compounds in TSI Cocktail (T: TNF; S: Smac Mimetic; I: IDN-6556) and their Final Concentrations: • rhTNF (100 ng/ml) • Compound A (500 nM)—Smac mimetic, Tetralogic and SYNthesis med chem • IDN-6556 (10 μM)—Selleckchem (S7775)
The cellular assay was carried out according to the following steps: • 1. Each well was prepared by sequential addition of: • a. 40 μL of cell suspension (5.5×10^4 cells/mL) was added to each well to provide a final cell concentration of 2,200 cells per well. • b. After 24 hours, DMSO (control; columns 1-2 and 23-24) or compound in DMSO—addition was performed using acoustic transfer of nL volumes of stock compound to give final test concentrations of 36, 12, 4, 1.3, 0.44, 0.148, 0.049, 0.016, 0.005 and 0.002 μM. All wells were backfilled with DMSO to a final total volume in the well of 100 nL. • c. Following compound/DMSO addition in step (b), Plates were incubated for 30 minutes at 37° C./10% CO2 in a humidified incubator and then 10 μL of 5×TSI cocktail (except to positive controls; columns 2 and 24) was added to each well. • 2. After 3 hours, plate was removed from the 37° C. incubator and equilibrated to room temperature for 15 minutes. • 3. 15 μL of room temperature CellTitre-Glo2™ (Promega™) was added to each well. • 4. Shook plates for 2 minutes (˜600 rpm) and incubated at room temperature for 15 minutes to allow signal to stabilise. • 5. Read luminescence readout on a plate reader.
Percent viability was calculated for each compound according to equation (2): […]
10 point titration curves were fitted with the 4 parameter logistic nonlinear regression model and the IC50 reported reflect the inflection point of the curve for curve fitting.
• Assay involving the TSI cocktail (T: TNF; S: Smac mimetic; I: IDN-6556): TSI treatment ensures that cells specifically undergo necroptotic cell death. TNF activates the TNF receptor, Smac mimetic directs the signal away from proinflammatory signaling and toward the RIPK1/RIPK3-mediated cell death pathways, and IDN-6556 (Caspase inhibitor) ensures that the apoptotic response is blocked leaving only the programmed necrosis response. The compounds' activity (solution in DMSO) tested in this TSI-induced assay was evaluated by determining the number of viable cells in culture by measuring the amount of ATP present as measured by CelltiterGlo.

mouse MLKL (full length) = mouse MLKL (full length) (Mus musculus (Mouse), UniProt Q9D2Y4); test: KINOMEscan binding assay, mouse MLKL (full length); conditions: equilibrium dissociation constant
Chain of mouse MLKL (full length) (Q9D2Y4 whole entry): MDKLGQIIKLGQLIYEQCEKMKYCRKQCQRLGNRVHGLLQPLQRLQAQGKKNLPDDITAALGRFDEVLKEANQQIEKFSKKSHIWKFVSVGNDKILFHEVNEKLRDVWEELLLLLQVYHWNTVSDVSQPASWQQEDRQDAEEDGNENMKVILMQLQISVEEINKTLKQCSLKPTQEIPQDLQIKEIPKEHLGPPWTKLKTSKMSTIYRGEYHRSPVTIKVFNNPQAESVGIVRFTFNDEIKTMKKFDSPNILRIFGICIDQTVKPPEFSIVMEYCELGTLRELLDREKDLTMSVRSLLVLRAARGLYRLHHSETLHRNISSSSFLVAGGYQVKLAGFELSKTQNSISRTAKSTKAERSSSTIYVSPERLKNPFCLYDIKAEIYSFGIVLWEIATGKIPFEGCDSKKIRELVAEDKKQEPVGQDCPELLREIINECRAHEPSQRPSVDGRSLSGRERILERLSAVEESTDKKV
Protocol: Binding affinity of the test compounds for human MLKL (full length), mouse MLKL (full length), human RIPK1 and human RIPK3 was determined using the KINOMEscan™ technology developed by DiscoverX (USA; http://www.discoverx.com). The assay was conducted according to manufacturer instructions.
Kinase assays. For most assays, kinase-tagged T7 phage strains were grown in parallel in 24-well blocks in an E. coli host derived from the BL21 strain. E. coli were grown to log-phase and infected with T7 phage from a frozen stock (multiplicity of infection=0.4) and incubated with shaking at 32° C. until lysis (90-150 minutes). The lysates were centrifuged (6,000×g) and filtered (0.2 μm) to remove cell debris. The remaining kinases were produced in HEK-293 cells and subsequently tagged with DNA for qPCR detection. […] The liganded beads were blocked with excess biotin and washed with blocking buffer (SeaBlock (Pierce), 1% BSA, 0.05% Tween 20, 1 mM DTT) to remove unbound ligand and to reduce non-specific phage binding. […] All reactions were performed in polypropylene 384-well plates in a final volume of 20 μL. […] The kinase concentration in the eluates was measured by qPCR.
An 11-point 3-fold serial dilution of each test compound was prepared in 100% DMSO at 100× final test concentration and subsequently diluted to 1× in the assay (final DMSO concentration=1%). Most Kos were determined using a compound top concentration=30,000 nM.
KD for each test compound was calculated with a standard dose-response curve using the Hill equation (equation (1)): […]
The Hill Slope was set to −1.
Curves were fitted using a non-linear least square fit with the Levenberg-Marquardt algorithm.

[3] = TSQ cocktail (TNF, Smac mimetic, Q-VD-OPh)
[4] = Homo sapiens, U-937, TSQ cocktail (TNF, Smac mimetic, Q-VD-OPh)
[5] = Homo sapiens, U-937, compound without TSQ cocktail

Chain of human MLKL (full length) (Q8NB16 whole entry): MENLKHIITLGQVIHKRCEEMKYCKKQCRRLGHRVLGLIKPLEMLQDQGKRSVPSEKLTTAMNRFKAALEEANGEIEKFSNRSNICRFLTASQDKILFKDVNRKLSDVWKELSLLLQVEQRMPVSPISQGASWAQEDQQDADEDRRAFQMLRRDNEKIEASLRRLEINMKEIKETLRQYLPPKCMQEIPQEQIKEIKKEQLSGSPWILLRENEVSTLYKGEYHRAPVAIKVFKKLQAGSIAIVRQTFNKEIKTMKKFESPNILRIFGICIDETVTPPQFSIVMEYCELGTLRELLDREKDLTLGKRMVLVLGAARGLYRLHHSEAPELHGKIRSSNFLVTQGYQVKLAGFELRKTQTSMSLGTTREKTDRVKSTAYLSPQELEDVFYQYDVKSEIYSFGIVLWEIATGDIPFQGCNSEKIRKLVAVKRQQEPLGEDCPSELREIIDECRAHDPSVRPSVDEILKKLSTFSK

Row | Structure (SMILES) | Kd (human MLKL (full length)) | Kd (human RIPK1) | Kd (human RIPK3) | IC50 [1, 3] | IC50 (U937 cells; compound without TSQ cocktail) | IC50 ([2]; 3 hours) | IC50 ([2]; Mus musculus, Fibroblast, 3 h) | Kd (mouse MLKL (full length)) | IC50 [1, 4] | IC50 (U937 cells; [5])
1 | C[C@H](Oc1cc(-c2nn(C)c3c(-c4cnn(C5CCN(C)C(C)(C)C5)c4)cnc(N)c23)ccc1NS(=O)(=O)C(F)F)c1ccc(F)cc1 (single isomer, unassigned) [Compound 155, N-(4-(4-amino-1-methyl-7-(1-((S*)-1,2,2-trimethylpiperidin-4-yl)-1H-pyrazol-4-yl)-1H-pyrazolo[4,3-c]pyridin-3-yl)-2-((S)-1-(4-fluorophenyl)ethoxy)phenyl)-1,1-difluoromethanesulfonamide] | 0.001 to 0.1 µM | > 10 µM | > 10 µM | < 0.01 µM | > 10 µM | 0.1 to 1 µM | – | – | – | –
2 | C[C@H](Oc1cc(-c2nn(C)c3c(-c4cnn(C5CCN(C)C6(CC6)C5)c4)cnc(N)c23)ccc1NS(=O)(=O)C(F)F)c1ccc(F)cc1 (single isomer, unassigned) [Compound 171, N-(4-(4-amino-1-methyl-7-(1-((R*)-4-methyl-4-azaspiro[2.5]octan-7-yl)-1H-pyrazol-4-yl)-1H-pyrazolo[4,3-c]pyridin-3-yl)-2-((S)-1-(4-fluorophenyl)ethoxy)phenyl)-1,1-difluoromethanesulfonamide] | 0.001 to 0.1 µM | > 10 µM | > 10 µM | 0.01 to 1 µM | > 10 µM | < 0.1 µM | – | – | – | –
3 | CCS(=O)(=O)Nc1ccc(-c2coc3c(-c4cnn(C5CCOCC5)c4)cnc(N)c23)cc1OCc1ccc(F)cc1 [Compound 3, N-(4-(4-amino-7-(1-(tetrahydro-2H-pyran-4-yl)-1H-pyrazol-4-yl)furo[3,2-c]pyridin-3-yl)-2-((4-fluorobenzyl)oxy)phenyl)ethanesulfonamide] | < 0.001 µM | > 10 µM | > 10 µM | – | – | – | 1 to 10 µM | – | – | –
4 | Nc1ncc(-c2cnn(C3CCOCC3)c2)c2occ(-c3ccc(NS(=O)(=O)C(F)F)c(OCc4ccc(F)cc4)c3)c12 [Compound 5, N-(4-(4-amino-7-(1-(tetrahydro-2H-pyran-4-yl)-1H-pyrazol-4-yl)furo[3,2-c]pyridin-3-yl)-2-((4-fluorobenzyl)oxy)phenyl)-1,1-difluoromethanesulfonamide] | < 0.001 µM | > 10 µM | > 10 µM | – | – | – | – | < 0.001 µM | – | –
5 | C[C@H](Oc1cc(-c2nn(C)c3c(-c4cnn(C5CCOCC5)c4)cnc(N)c23)ccc1NS(=O)(=O)C(F)F)c1ccc(Cl)cc1 [Compound 137, (S)-N-(4-(4-amino-1-methyl-7-(1-(tetrahydro-2H-pyran-4-yl)-1H-pyrazol-4-yl)-1H-pyrazolo[4,3-c]pyridin-3-yl)-2-(1-(4-chlorophenyl)ethoxy)phenyl)-1,1-difluoromethanesulfonamide] | – | – | – | – | – | – | 1 to 10 µM | – | < 0.01 µM | > 10 µM
6 | C[C@H](Oc1cc(-c2nn(C)c3c(-c4cnn(C5CCNC(C(F)(F)F)C5)c4)cnc(N)c23)ccc1NS(=O)(=O)C(F)F)c1ccc(F)cc1 (stereo partly drawn) [Compound 149, N-(4-(4-amino-1-methyl-7-(1-(2-(trifluoromethyl)piperidin-4-yl)-1H-pyrazol-4-yl)-1H-pyrazolo[4,3-c]pyridin-3-yl)-2-((S)-1-(4-fluorophenyl)ethoxy)phenyl)-1,1-difluoromethanesulfonamide] | – | – | – | – | – | – | 0.1 to 1 µM | – | < 0.01 µM | > 10 µM
7 | Cn1nc(-c2ccc(NS(=O)(=O)C(F)F)c(OCC3CCCCC3)c2)c2c(N)ncc(-c3cnn(C4CCOCC4)c3)c21 [Compound 150, N-(4-(4-amino-1-methyl-7-(1-(tetrahydro-2H-pyran-4-yl)-1H-pyrazol-4-yl)-1H-pyrazolo[4,3-c]pyridin-3-yl)-2-(cyclohexylmethoxy)phenyl)-1,1-difluoromethanesulfonamide] | < 0.001 µM | > 10 µM | > 10 µM | – | – | – | 1 to 10 µM | – | – | –
8 | [2H]C([2H])([2H])N1CCC(n2cc(-c3cnc(N)c4c(-c5ccc(NS(=O)(=O)C(F)F)c(O[C@@H](C)c6ccc(F)cc6)c5)nn(C)c34)cn2)CC1(C)C (stereo partly drawn) [Compound 152, N-(4-(4-amino-7-(1-(2,2-dimethyl-1-(methyl-d3)piperidin-4-yl)-1H-pyrazol-4-yl)-1-methyl-1H-pyrazolo[4,3-c]pyridin-3-yl)-2-((S)-1-(4-fluorophenyl)ethoxy)phenyl)-1,1-difluoromethanesulfonamide] | – | – | – | – | – | – | 0.1 to 1 µM | – | < 0.01 µM | > 10 µM
9 | C[C@H](Oc1cc(-c2nn(C)c3c(-c4cnn(C5CCN(C)C(C(F)F)C5)c4)cnc(N)c23)ccc1NS(=O)(=O)C(F)F)c1ccc(F)cc1 (stereo partly drawn) [Compound 158, N-(4-(4-amino-7-(1-(2-(difluoromethyl)-1-methylpiperidin-4-yl)-1H-pyrazol-4-yl)-1-methyl-1H-pyrazolo[4,3-c]pyridin-3-yl)-2-((S)-1-(4-fluorophenyl)ethoxy)phenyl)-1,1-difluoromethanesulfonamide] | 0.001 to 0.1 µM | – | – | – | – | – | < 0.1 µM | – | < 0.01 µM | > 10 µM
10 | C[C@H](Oc1cc(-c2nn(C)c3c(-c4cnn(C5CCC(N(C)C)C5)c4)cnc(N)c23)ccc1NS(=O)(=O)C(F)F)c1ccc(F)cc1 (stereo partly drawn) [Compound 168, N-(4-(4-amino-7-(1-(3-(dimethylamino)cyclopentyl)-1H-pyrazol-4-yl)-1-methyl-1H-pyrazolo[4,3-c]pyridin-3-yl)-2-((S)-1-(4-fluorophenyl)ethoxy)phenyl)-1,1-difluoromethanesulfonamide] | – | – | – | – | – | – | 0.1 to 1 µM | – | 0.01 to 1 µM | > 10 µM
